Measurements as given in US20250000818A1, “NEW SYNERGISTIC COMBINATIONS BASED ON FENM AND AN ACETYLCHOLINESTERASE INHIBITOR” (REST Therapeutics, priority 2021, published 2025).

What was measured:
[1] = test system: mice intoxicated with Aβ25-35 oligomers; assay: Passive avoidance test (PAT), long-term contextual memory, Aβ25-35 oligomer ICV intoxication model; format: in vivo, male Swiss OF-1 mice
Description: (§1) In vivo experiments were conducted on male Swiss OF-1 mice (January, St Berthevin, France) aged 7 to 9 weeks with a mass of 32±2 g. The animals are housed in groups of 8 to 10 individuals in plastic cages with free access to food and drink, in a controlled environment (12:00 day/night cycle, the light is switched on at 7:00 a.m. and the behavioral experiments take place between 9:00 a.m. and 5:00 p.m.), under controlled atmosphere and sound environment.
FENM was obtained from M2i Life Sciences (Saint-Cloud, France). The stock solutions of the compounds were obtained by dissolution in NaCl buffer (0.9%, vehicle) at a concentration of 2 mg/mL which corresponds to a dose of 5 mg/Kg. These stock solutions are stored at 4° C. for 2 weeks maximum.
(§2) The vehicle solution or the control peptide are subjected to the same treatment before administration.
The compounds are IP administered in a volume of 100 μL per 20 g of body mass. […] The doses of compounds mentioned in the experimental part correspond to the doses of salts of the used compounds and not to the mass equivalent of the compound itself. For each compound, the administered doses are 0.01, 0.03, 0.1, 0.3 and 1 mg/kg.
(§3) The ability of the compounds and their combination to decrease the cognitive symptoms of neurodegeneration induced by the Aβ25-35 oligomers is tested. For this purpose, the administration of the test compounds takes place on the same day as the injection of the Aβ25-35 oligomers and continues on a daily basis until day 7 after the injection of the Aβ25-35 oligomers; the mice are then subjected to YMT tests, or PAT on day 8 after the injection of the Aβ25-35 oligomers.
This test measures the long-term non-space (contextual) memory. The device used for this test is a box with two compartments (15×20×15 cm high), one illuminated with white PVC walls and the other in the dark with black PVC walls and a mesh floor. A guillotine door separates the compartments. A 60 W lamp is positioned 40 cm above the box and illuminates the white compartment. Electrical shocks (0.3 mA for 3 s) may be applied to the grid floor via a generator (Lafayette Instruments, Lafayette, USA). The test consists of a learning session and a test session. The guillotine door is closed during the training session. Each mouse is placed in the white compartment. After 5 seconds, the door is raised. When the mouse enters the dark compartment so that its four legs are in contact with the mesh, the door closes and electrical discharges are applied for 3 seconds. The time taken by the mouse to enter the dark compartment (STL-Tg) and the level of shock sensitivity (0=no sign; 1=surges; surge and vocalizes) are recorded. The test session is performed 24 hours after the learning session. Each mouse is placed back in the illuminated white compartment. After 5 seconds, the door is raised, the latency time (STL-R), i.e. the time it takes the mouse to go into the dark compartment, is measured. The maximum time is 300 seconds.

[2] = test system: mice intoxicated with Aβ25-35 oligomers; assay: Y-labyrinth spontaneous alternation test (YMT), short-term spatial working memory, Aβ25-35 oligomer ICV intoxication model; format: in vivo, male Swiss OF-1 mice
Description: as §1
The stock solutions of the compounds were obtained by dissolution in NaCl buffer (0.9%, vehicle) at a concentration of 2 mg/mL which corresponds to a dose of 5 mg/Kg. These stock solutions are stored at 4° C. for 2 weeks maximum.
as §2
The compounds are IP administered in a volume of 100 μL per 20 g of body mass. […] The doses of compounds mentioned in the experimental part correspond to the doses of salts of the used compounds and not to the mass equivalent of the compound itself. For each compound, the administered doses are 0.01, 0.03, 0.1, 0.3 and 1 mg/kg. In the case of the combination, the co-administered doses of donepezil and FENM were 0.03 and 0.01 mg/kg, respectively.
as §3
The spontaneous alternation test is used to study the (very short-term) spatial working memory in rodents. The labyrinth is made of opaque gray polyvinyl chloride (PVC). Each arm is 40 cm long, 13 cm high and 3 cm wide at its base and 10 cm at its top. The arms converge towards one another, with an equal angle between the different arms. In brief, each mouse is placed at the end of an arm and left free to move for an 8-minute session. The mouse entries in each of the arms, including the arm at which it was dropped, are recorded. An alternation is defined as the successive entry of the animal into three different arms.
The animal data showing extreme behaviors (percentage of alternation <20% or >90%) are not taken into account in the calculations. The attrition rate is usually 5%. Under normal conditions, a mouse will spontaneously alternate the explorations of each arm. A mouse with impaired memory and/or orientation capabilities will have its alternation percentage decreased.
Data were analyzed using unidirectional variance analyses (ANOVA, F-value), followed by a Dunnett test or non-parametric Kruskal-Wallis ANOVA (H-value) followed by a Dunn comparison test. The statistical significance levels are p<0.05, p<0.01 and p<0.001.

For `NC12CC3CC(C1)CC(CCF)(C3)C2.OBr` [FENM, 3 (2-Fluoroethyl)tricyclo[3.3.1.13,7]decan-1-amine bromohydrate], the “PP (%) percentage protection” value ([1]; 0.01 mg/kg IP) was 1.4 ± 18.3%, the “PP (%) percentage protection” value ([1]; 0.03 mg/kg IP) was −12.2 ± 16.8 % and the “PP (%) percentage protection” value ([1]; 0.1 mg/kg IP) was 27.8 ± 24.8%. The “PP (%) percentage protection” value ([1]; 0.3 mg/kg IP) was 52.9 ± 14.2 %, the “effect on passive avoidance performance (latency) of intoxicated mice” value ([1]; 0.3 mg/kg or 1 mg/kg IP) was “performances that are not significantly different from the control, non-intoxicated, untreated mice” and the “effect on passive avoidance performance (latency) of intoxicated mice” value ([1]; doses lower than 0.3 mg/kg) was “does not protect mice from mnesic disorders”. The “effect on percentage of alternation of intoxicated mice” value ([2]; 0.01 mg/kg) was “at the limit of statistical significance”, the “PP (%) percentage protection” value ([2]; 0.01 mg/kg IP daily to day 7, 100% = non-intoxicated vehicle, 0% = Aβ25-35/vehicle) was 38.5 ± 31.9% and the “effect on percentage of alternation of intoxicated mice” value ([2]; 0.03 mg/kg) was “significantly improves the percentage of alternation”. The “PP (%) percentage protection” value ([2]; 0.03 mg/kg IP) was 58.4 ± 20.8% and the “PP (%) percentage protection” value ([2]; 0.1 mg/kg IP) was 71.2 ± 33.3 %.
